In patent EP0574185B1, “PGE1 analogs” (NEWPHARMA INTERNATIONAL CORPORATION, priority 1992, dated 1993):

Experiments:
[1] = test system: patients; conditions: three or four suppositories of 1 mg at regular intervals; various studies; cited from earlier work
[2] = test system: Swiss male mice; test: Motor activity in mice (rota-rod); conditions: 5 mg/kg, i.p. (table); positive control
[3] = test system: platelets; conditions: background statement; cited from earlier work

SMILES | concentration that inhibits platelets aggregation "in vitro" [3] | other results
CCCCC(C)(C)[C@H](O)/C=C/[C@H]1[C@H](O)CC(=O)[C@@H]1CCCC/C=C/C(=O)OC (relative stereo) [gemeprost, 16,16-dimethyl-trans-Δ^2-PGE1 methyl ester] |  | complete abortions (% of the patients) [1]: more than 90%
CN1C(=O)CN=C(c2ccccc2)c2cc(Cl)ccc21 [Diazepam, reference compound] |  | Fraction (animals fallen before 300 sec/total number of animals) [2]: 8/10
CCCCC[C@H](O)/C=C/[C@H]1[C@H](O)CC(=O)[C@@H]1CCCCCCC(=O)O [PGE1] | 0.1 µM | 
CCCCC[C@H](O)/C=C/[C@H]1C(=O)C[C@H](O)[C@@H]1C/C=C\CCCC(=O)O [PGD2] | 0.1 µM | 
